Measurements reported in publication PMC6199279, “Design of Peptoid-peptide Macrocycles to Inhibit the β-catenin TCF Interaction in Prostate Cancer” (Nature Communications, 2018).
Blank lines part the entries; values can stand above or below the compound they belong to. Numbered stars: 1 amine (or outer) side, 2 acyl side, 3 side chain; on linkers, the order of the positions; unused ones are H or OH. Square brackets hold non-standard residues; d marks the D form. Peptide text beside a SMILES is read from it. N(2-(2-PhOPh)Et)Gly = O=C(O)CNCCc1ccccc1Oc1ccccc1; Gly(N-3,5-(OMe)2-Ph) = COc1cc(NCC(=O)O)cc(OC)c1; X1 = COc1ccc([C@H](C)N(CC(=O)[*:2])[*:1])cc1; N((CH2)3OiPr)Gly = CC(C)OCCCNCC(=O)O

Assays:
[1] = test system: TOP-Flash Wnt luciferase reporter; experiment: TOP-Flash Wnt luciferase reporter assay in LNCaP-abl cells; assay type: cell-based; conditions: for Effect of control Wnt inhibitors on the Wnt luciferase reporter: dose response, commercially available inhibitors (Supplementary Fig. 5)
Excerpt: (§1) Using a TOP-Flash Wnt luciferase reporter, we tested the 12 oligomers identified from in silico modeling for inhibitory activity (Fig. 2b). […] We also employed a 3 × -Androgen Response Element (ARE) luciferase reporter to measure the effect on AR activity. […] As additional controls, we obtained previously developed, commercially available Wnt inhibitors and tested them in the Wnt luciferase assay (Supplementary Fig. 5).
(§2) We next characterized the dose response curves for compound 13 in the Wnt and AR luciferase reporters. The linear version of 13 (linear 13: NH2-|N-mpp, N-dmp, N-ipp, N-Smpe, N-Smpe, D-Ala|-OH) was used as a control compound. […] To test direct binding, we pre-formed dynamic light scattering (DLS) with β-catenin in the presence of vehicle, compound 13, and α-cyclodextrin. […] HEK293 cells were transiently transfected with a plasmid expressing full length, myc-tagged TCF4. After 48 h treatment with either vehicle (DMSO) or 10 µM 13, cells were lysed and myc-TCF4 protein was immunoprecipitated.
LNCaP-abl and LNCaP-95 cells were cultured in indicator free RPMI 1640 media (Life) supplemented with 10% charcoal stripped FBS, 1% pennicillin/streptomycin, and 1% L-Glutamine. HEK-293 Cells were cultured in DMEM media (Life) supplemented with 10%FBS and 1% pennicillin/streptomycin. A549 and U2OS cells were cultured in RPMI 1640 media (Life) and McCoy’s 5 A modified media (Life), respectively, both supplemented with 10%FBS and 1% pennicillin/streptomycin. LNCaP-abl, and LNCaP-95 cell lines were generous gifts from Z. Culig (Innsbruck Medical University, Austria) and J. Isaacs (Johns Hopkins University, Baltimore, MD), respectively. Cell lines were authenticated by STR profiling (Genetica Cell Line Testing; Burlington, NC). A549 and U2OS were purchased from ATCC (product numbers CCL-185 and HTB-96). Cell lines were routinely screened for mycoplasma. Luciferase assays were conducted using stably transfected TOP-flash and 3xARE LNCaP-abl cell lines. For the Wnt pathway, TOP-Flash LNCaP-abl cells were treated with 1 nM siAPC (a 1:1:1 mix of Ambion Silencer Silect siAPC RNA, ID#s s1433, s1434, s1435) for 24 h and seeded into 384-well plates at 5000 cells/well, followed by 24 h of treatment with compound. For the AR-pathway, 3xARE LNCaP-abl cells were seeded into 384-well plates at 5000 cells per well, treated for 48 h with compound, with the addition of R1881 for the final 8 h. Both were measured using the ONE-Glo detection kit (Promega) and data is standardized to CellTiter-Fluor (Promega) viability readings to account for potential variations in well to well cell number. Control Wnt inhibitors were purchased from Sigma with the exception of PRI-724 which was purchased from Selleckchem. Co-immunoprecipitation was carried out using HEK293 cells transfected with either myc-TCF (addgene #32738) or myc-TCF dominant negative (addgene #32739) followed by 48 h of treatment with compound. Cells were lysed using Triton lysis buffer and 1 mg total protein was incubated overnight at 4 C with 40 µl anti-cMyc magnetic beads (Thermo). Total protein concentration in cell lysates were determined using Pierce Rapid Gold BCA Protein Assay Kit (Thermo). The beads were washed 3× with lysis buffer then boiled in 2X sample loading dye. SDS-PAGE and western blotting were performed using anti-Myc (CST 2276) and anti-β-catenin (CST 8480). Both antibodies were diluted in blocking buffer 1:1000 and incubated overnight at 4 C with the membrane. […]

[2] = parameters: method as in PMID 24019458; conditions: mouse xenograft experiments, direct tumor injection required; cited from earlier work
[3] = test system: AR luciferase reporter (3xARE); experiment: 3x-Androgen Response Element (ARE) luciferase reporter assay in LNCaP-abl cells; assay type: cell-based; conditions: 3xARE LNCaP-abl cells, 48 h compound, androgen-activated; read-out: IC50 for inhibition of the AR luciferase reporter
Excerpt: as §1, §2
LNCaP-abl and LNCaP-95 cells were cultured in indicator free RPMI 1640 media (Life) supplemented with 10% charcoal stripped FBS, 1% pennicillin/streptomycin, and 1% L-Glutamine. HEK-293 Cells were cultured in DMEM media (Life) supplemented with 10%FBS and 1% pennicillin/streptomycin. A549 and U2OS cells were cultured in RPMI 1640 media (Life) and McCoy’s 5 A modified media (Life), respectively, both supplemented with 10%FBS and 1% pennicillin/streptomycin. LNCaP-abl, and LNCaP-95 cell lines were generous gifts from Z. Culig (Innsbruck Medical University, Austria) and J. Isaacs (Johns Hopkins University, Baltimore, MD), respectively. Cell lines were authenticated by STR profiling (Genetica Cell Line Testing; Burlington, NC). […] Both were measured using the ONE-Glo detection kit (Promega) and data is standardized to CellTiter-Fluor (Promega) viability readings to account for potential variations in well to well cell number. […] Total protein concentration in cell lysates were determined using Pierce Rapid Gold BCA Protein Assay Kit (Thermo). […]

[4] = test system: Wnt signaling in zebrafish embryos; conditions: 50 µl of 30 µM compound added at ~5.5 hpf, BIO added about 30 min later; eight fish per group
Experimental: To evaluate the efficacy of 13 in vivo, we utilized a Danio rerio (zebrafish) model. […] To test this, BIO was added to zebrafish embryos at 6 hpf with and without 13 as described in Fig. 6a.
The zebrafish phenotypic assay was conducted using wild-type zebrafish embryos seeded into a 96-well round bottom plate at 4 hpf in 50 µl of Fish Water (60 mg/l sea salt, Instant Ocean, Blacksburg, VA, USA) supplemented with 1 mg per L Methylene Blue (Sigma-Aldrich). The embryos were not dechorionated. At 50% epiboly, roughly 5.5 hpf, 50 µl of 30 µM 13 or Linear 13 was added. About 30 min later at shield stage, 50 µl of 6 nM (3×) BIO was added. The embryos were then visualized for the presence of eyes and imaged at 30 hpf. Zebrafish embryos were randomly assigned to non-blinded treatment groups, none were excluded. Sample size was determined with a power calculation to achieve statistical significance (alpha = 0.05, beta = 0.2) if only 60% of the fish had developed eyes.

[5] = target: T1, β-catenin (Homo sapiens, UniProt P35222); experiment: Dynamic light scattering of β-catenin; assay type: binding; conditions: 10 µM compound vs 1% DMSO vehicle
T1 construct: His6-β-catenin armadillo domain, AA134-668; made in house; host or cells: E. coli BL21 DL3 (NEB)
T1 sequence (P35222 134-668): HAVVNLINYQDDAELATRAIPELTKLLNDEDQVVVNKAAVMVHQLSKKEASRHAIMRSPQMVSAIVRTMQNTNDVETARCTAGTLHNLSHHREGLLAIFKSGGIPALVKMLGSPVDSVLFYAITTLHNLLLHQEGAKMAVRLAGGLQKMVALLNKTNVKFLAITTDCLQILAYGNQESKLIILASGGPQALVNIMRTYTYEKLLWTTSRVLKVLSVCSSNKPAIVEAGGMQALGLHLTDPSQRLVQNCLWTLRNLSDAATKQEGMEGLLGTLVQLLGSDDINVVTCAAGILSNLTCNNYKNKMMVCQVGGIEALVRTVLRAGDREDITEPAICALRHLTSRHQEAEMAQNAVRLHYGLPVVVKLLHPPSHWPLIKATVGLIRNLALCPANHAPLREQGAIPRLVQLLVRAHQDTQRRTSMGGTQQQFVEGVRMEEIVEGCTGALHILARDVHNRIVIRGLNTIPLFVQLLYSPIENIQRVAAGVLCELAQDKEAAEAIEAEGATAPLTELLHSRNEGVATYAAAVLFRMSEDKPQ
Experimental: as §2

SMILES: C[C@H]1[C@H]2N(C(=O)CN(C)N2C(=O)NCc2ccccc2)[C@@H](Cc2ccc(OP(=O)(O)O)cc2)C(=O)N1Cc1cccc2cccnc12 [PRI-724, reference compound]
Effect of control Wnt inhibitors on the Wnt luciferase reporter [1]: did inhibit the luciferase reporter

SMILES: CCc1ccc(-c2nc(CSCC(=O)NCCc3ccccc3)c(C)o2)cc1 [iCRT3, reference compound]
Systemic stability [2]: not systemically stable | Effect of control Wnt inhibitors on the Wnt luciferase reporter [1]: did inhibit the luciferase reporter

IC50 [3]: 7.63 µM | IC50 ([1]; TOP-Flash LNCaP-abl cells, siAPC knockdown, 24 h compound, ± SD of three replicates, read-out: IC50 for Wnt luciferase inhibition): 3.27 µM
SMILES: COc1ccc([C@H](C)N(CC(=O)N[C@H](C)C(=O)O)C(=O)CN(C(=O)CN(CCCOC(C)C)C(=O)CN(C(=O)CNCCc2ccccc2Oc2ccccc2)c2cc(OC)cc(OC)c2)[C@@H](C)c2ccc(OC)cc2)cc1 [linear 13, NH2-|N-mpp, N-dmp, N-ipp, N-Smpe, N-Smpe, D-Ala|-OH] (H-[N(2-(2-PhOPh)Et)Gly][Gly(N-3,5-(OMe)2-Ph)][N((CH2)3OiPr)Gly][X1][X1][dA]-OH)
Fish that developed eyes, BIO plus compound [4]: 6/8

Shift in measured hydrodynamic radius of β-catenin (DLS) [5]: did not cause the same shift
SMILES: OC[C@H]1O[C@@H]2O[C@H]3[C@H](O)[C@@H](O)[C@@H](O[C@H]4[C@H](O)[C@@H](O)[C@@H](O[C@H]5[C@H](O)[C@@H](O)[C@@H](O[C@H]6[C@H](O)[C@@H](O)[C@@H](O[C@H]7[C@H](O)[C@@H](O)[C@@H](O[C@H]1[C@H](O)[C@H]2O)O[C@@H]7CO)O[C@@H]6CO)O[C@@H]5CO)O[C@@H]4CO)O[C@@H]3CO [α-cyclodextrin, reference compound]
